Test [1] has as its target GLS1 (Homo sapiens (Human), UniProt O94925). In words: GLS Enzyme Potency Assay (Glutamate Oxidase/AmplexRed coupled assay). Format: biochemical. The conditions noted are these: 6His tagged GLS protein (amino acids 63-669); geometric mean where repeated. The text has this:
The following assays were used to measure the effects of the compounds of the present invention: a) GLS Enzyme Potency Assay; b) GLS Cell Potency Assay; c) GLS Cell Proliferation Assay; and d) Mouse Xenograft Model. During the description of the assays, generally: • i. The following abbreviations have been used: CO2=Carbon dioxide; DMEM=Dulbecco's Modified Eagle Medium; DMSO=Dimethyl sulphoxide; EDTA=Ethylenediaminetetraacetic acid; EGTA=Ethylene glycol tetraacetic acid; FCS=Foetal calf serum; h=Hour(s); NBS=Non-binding surface; SDS=Sodium dodecyl sulphate; r.t.=room temperature; TRIS=Tris(Hydroxymethyl)aminomethane. • ii. IC50 values were calculated using a smart fitting model in Genedata. […] Assay a): GLS Enzyme Potency Assay
A Glutamate Oxidase/AmplexRed coupled assay was used to measure the ability of compounds to bind to and inhibit the activity of GLS1 in vitro. […] GLS1 was diluted to 2× working concentration and incubated at r.t. to allow the tetrameric/dimeric forms to reach steady state. Assay measurements were performed in buffer comprising 50 mM TRIS pH 7.8, 100 mM NaPO4, pH 7.8, 0.001% v/v Tween20. […] DMSO concentration was maintained at 2% by back filling with DMSO solution. […] 3 μL of 100 mM glutamine diluted in assay buffer was then added and the reaction incubated at r.t. for 60 minutes. […] An artefact version of the assay where the 6His tagged GLS protein and glutamine were replaced with assay buffer was also used to rule out non specific effects on the assay components.

For test [2], the target named is cellular GLS activity (Homo sapiens (Human), UniProt O94925). In words: GLS Cell Potency Assay (PC3 coupled assay measuring cellular glutamate depletion). The conditions noted are these: PC3 cells, 6 h incubation, cellular glutamate depletion; geometric mean where repeated; read-out: Assay b) GLS Cell Potency Assay IC50. Format: cell-based. The source says: (§1) The following assays were used to measure the effects of the compounds of the present invention: a) GLS Enzyme Potency Assay; b) GLS Cell Potency Assay; c) GLS Cell Proliferation Assay; and d) Mouse Xenograft Model. During the description of the assays, generally: • i. The following abbreviations have been used: CO2=Carbon dioxide; DMEM=Dulbecco's Modified Eagle Medium; DMSO=Dimethyl sulphoxide; EDTA=Ethylenediaminetetraacetic acid; EGTA=Ethylene glycol tetraacetic acid; FCS=Foetal calf serum; h=Hour(s); NBS=Non-binding surface; SDS=Sodium dodecyl sulphate; r.t.=room temperature; TRIS=Tris(Hydroxymethyl)aminomethane. • ii. […]
Compounds were assessed for their potential to inhibit cellular GLS activity by use of a PC3 coupled assay measuring cellular glutamate depletion. […] DMSO concentration was maintained at 0.3% by back filling with DMSO solution. PC3 cells were grown in phenol free DMEM, 10% dialyzed FCS, 2 mM glutamine and following dispersal by trypsinisation were plated at 5.6×10^3 cells per well in 40 μl of growth medium directly into the 384 well assay plates containing dispensed compound. After incubation for 6 h at 37° C., 5% CO2 growth media was aspirated and cells lysed in 15 μl of buffer containing 10 mM TRIS pH7.4, 100 mM NaCl, 1 mM EDTA, 1 mM EGTA, 1 mM NaF, 20 mM Na4P2O7, 2 mM Na3VO4, 1% Triton X-100, 10% glycerol, 0.1% SDS and 0.5% deoxycholate.

Test [3] relates to NCI-H1703 cells. Put plainly: GLS Cell Proliferation Assay (NCI-H1703). Format: cell-based, human.
Description: as §1
The ability of compounds to inhibit cell growth was measured using a 384 well plate NCI-H1703 cell proliferation assay. NCI-H1703 cells were grown in phenol red free RPMI1640, 10% FCS and 2 mM glutamine and seeded at a density of 750 cells per well in 40 μl of growth medium into clear-bottom 384 well assay plates (Corning product code 3712) and incubated for 24 h at 37° C., 5% CO2. […] DMSO concentration was maintained at 0.3% by back filling with DMSO solution. Plates were incubated for 5 days at 37° C., 5% CO2, Sytox Green and Saponin added to final concentration of 2 μM and 0.25% respectively and incubated for 6 h prior to analysis. Plates were read on an Acumen eX3 (TTP Labtech) using 488 nm excitation and FITC filter set (500-530 nm) for emission. IC50 values were calculated by curve fitting to max inhibition of day zero growth using GeneData software analysis.

[4] abbreviates: Homo sapiens, 120 h; NCI-H1703 cells, 5 days incubation; geometric mean where repeated; read-out: Assay c) GLS Cell Proliferation Assay.

Each structure is given as a SMILES string. Where two headings read alike, the source gives them in different places.

The text below walks through data of patent US10040788B2, “1,3,4-thiadiazole compounds and their use in treating cancer” (AstraZeneca AB, priority 2014, dated 2018).

Chain of GLS1 (O94925 63-669): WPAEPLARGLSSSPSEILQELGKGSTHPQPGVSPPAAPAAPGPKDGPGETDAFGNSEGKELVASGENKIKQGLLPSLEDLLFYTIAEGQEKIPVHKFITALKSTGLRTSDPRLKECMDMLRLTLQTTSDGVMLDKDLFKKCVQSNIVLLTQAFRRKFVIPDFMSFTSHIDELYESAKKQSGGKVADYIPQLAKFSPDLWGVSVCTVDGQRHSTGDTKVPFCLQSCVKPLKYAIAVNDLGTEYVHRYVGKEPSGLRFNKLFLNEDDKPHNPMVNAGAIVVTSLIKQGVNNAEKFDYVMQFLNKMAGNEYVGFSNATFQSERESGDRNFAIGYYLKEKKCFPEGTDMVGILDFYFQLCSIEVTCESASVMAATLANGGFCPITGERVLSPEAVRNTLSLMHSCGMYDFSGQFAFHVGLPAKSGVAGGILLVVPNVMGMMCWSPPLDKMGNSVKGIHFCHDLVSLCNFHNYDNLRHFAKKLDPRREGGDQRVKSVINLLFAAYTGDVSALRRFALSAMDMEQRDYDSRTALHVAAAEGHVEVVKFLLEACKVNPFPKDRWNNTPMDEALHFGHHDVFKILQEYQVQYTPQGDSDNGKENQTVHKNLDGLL
Chain of cellular GLS activity (O94925 55-669): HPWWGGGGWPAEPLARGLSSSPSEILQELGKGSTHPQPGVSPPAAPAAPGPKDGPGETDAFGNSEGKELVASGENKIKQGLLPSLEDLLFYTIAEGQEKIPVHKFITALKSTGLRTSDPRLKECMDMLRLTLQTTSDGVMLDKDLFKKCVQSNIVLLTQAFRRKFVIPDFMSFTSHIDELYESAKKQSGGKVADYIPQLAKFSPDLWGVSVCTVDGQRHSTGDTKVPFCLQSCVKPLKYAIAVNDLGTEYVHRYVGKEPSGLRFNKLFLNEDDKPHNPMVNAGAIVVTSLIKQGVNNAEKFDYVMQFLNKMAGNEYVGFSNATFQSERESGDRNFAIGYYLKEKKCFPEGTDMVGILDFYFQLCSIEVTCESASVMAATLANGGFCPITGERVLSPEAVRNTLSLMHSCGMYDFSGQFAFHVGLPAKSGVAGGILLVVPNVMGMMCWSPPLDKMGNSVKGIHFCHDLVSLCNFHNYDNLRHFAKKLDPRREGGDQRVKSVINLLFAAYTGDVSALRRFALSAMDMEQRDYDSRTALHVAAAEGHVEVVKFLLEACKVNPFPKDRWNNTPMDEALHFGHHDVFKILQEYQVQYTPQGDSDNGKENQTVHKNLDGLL

Regarding `CO[C@@H](C(=O)Nc1nnc(N[C@@H]2CCN(c3cccnn3)C2)s1)c1cccc(OC(F)(F)F)c1` [Example 9(b), (2R)-2-Methoxy-N-[5-[[(3R)-1-pyridazin-3-ylpyrrolidin-3-yl]amino]-1,3,4-thiadiazol-2-yl]-2-[3-(trifluoromethoxy)phenyl]acetamide], the IC50 in test [1] was determined as 32.9 nM; in test [2], 2.3 nM; in test [3] (setting [4]), 4.4 nM.

As for `CCO[C@H](C(=O)Nc1nnc(N[C@@H]2CCN(c3nccnn3)C2)s1)c1ccc(F)cc1` [35(a), (2S)-2-ethoxy-2-(4-fluorophenyl)-N-[5-[[(3R)-1-(1,2,4-triazin-3-yl)pyrrolidin-3-yl]amino]-1,3,4-thiadiazol-2-yl]acetamide], the figures for the IC50 in test [1], in test [2] and in test [3] (setting [4]) were 1950 nM, 337 nM and 7130 nM, respectively.

In the case of `COc1cccc([C@@H](OC)C(=O)Nc2nnc(N[C@@H]3CCN(c4nccnn4)C3)s2)c1` [Example 4(b), (2R)-2-Methoxy-2-(3-methoxyphenyl)-N-[5-[[(3R)-1-(1,2,4-triazin-3-yl)pyrrolidin-3-yl]amino]-1,3,4-thiadiazol-2-yl]acetamide], the IC50 in test [1] came out at 908 nM; in test [2] it was 76 nM; in test [3] (setting [4]) it was 262 nM.

Take `CCO[C@@H](C(=O)Nc1nnc(N[C@@H]2CCN(c3cccnn3)C2)s1)c1ccc(F)c(OC)c1` [31(b), (2R)-2-ethoxy-2-(4-fluoro-3-methoxy-phenyl)-N-[5-[[(3R)-1-pyridazin-3-ylpyrrolidin-3-yl]amino]-1,3,4-thiadiazol-2-yl]acetamide]: the IC50 in test [1] was 86.2 nM; in test [2], 33.3 nM; in test [3] (setting [4]), 624 nM.

As for `CCO[C@@H](C(=O)Nc1nnc(N[C@@H]2CCN(c3nccnn3)C2)s1)c1ccccc1` [34(b), (2R)-2-ethoxy-2-phenyl-N-[5-[[(3R)-1-(1,2,4-triazin-3-yl)pyrrolidin-3-yl]amino]-1,3,4-thiadiazol-2-yl]acetamide], the IC50 in test [1] is 1480 nM; in test [2], 168 nM; in test [3] (setting [4]), 2900 nM.

Turning to `CO[C@H](C(=O)Nc1nnc(N[C@@H]2CCN(c3nccnn3)C2)s1)c1cccc(OC(F)F)c1` [19(a), (2S)-2-[3-(difluoromethoxy)phenyl]-2-methoxy-N-[5-[[(3R)-1-(1,2,4-triazin-3-yl)pyrrolidin-3-yl]amino]-1,3,4-thiadiazol-2-yl]acetamide], the IC50 in test [1] was determined as 85.1 nM; in test [2] it was 2.54 nM; in test [3] (NCI-H1703 cells, 5 days incubation; geometric mean where repeated; read-out: Assay c) GLS Cell Proliferation Assay), 16.6 nM.

Turning to `CCO[C@H](C(=O)Nc1nnc(N[C@@H]2CCN(c3nccnn3)C2)s1)c1ccccc1` [34(a), (2S)-2-ethoxy-2-phenyl-N-[5-[[(3R)-1-(1,2,4-triazin-3-yl)pyrrolidin-3-yl]amino]-1,3,4-thiadiazol-2-yl]acetamide], the IC50 in test [1] stood at 88.1 nM; in test [2] it was 12 nM; in test [3] (setting [4]), 93.1 nM.

As for `CCO[C@@H](C(=O)Nc1nnc(N[C@@H]2CCN(c3nccnn3)C2)s1)c1ccc(F)cc1` [35(b), (2R)-2-ethoxy-2-(4-fluorophenyl)-N-[5-[[(3R)-1-(1,2,4-triazin-3-yl)pyrrolidin-3-yl]amino]-1,3,4-thiadiazol-2-yl]acetamide], the IC50 in test [1] stood at 155 nM; in test [2], 18.7 nM; in test [3] (setting [4]), 404 nM.

In the case of `CCO[C@@H](C(=O)Nc1nnc(N[C@@H]2CCN(c3nccnn3)C2)s1)c1ccc(F)c(OC)c1` [33(b), (2R)-2-ethoxy-2-(4-fluoro-3-methoxy-phenyl)-N-[5-[[(3R)-1-(1,2,4-triazin-3-yl)pyrrolidin-3-yl]amino]-1,3,4-thiadiazol-2-yl]acetamide], the results for the IC50 in test [1], in test [2] and in test [3] (setting [4]) were 1970 nM, 690 nM and 5540 nM, respectively.

With `CCO[C@@H](C(=O)Nc1nnc(N[C@@H]2CCN(c3nccnn3)C2)s1)c1ccc(OC)cc1` [29(b), (2R)-2-ethoxy-2-(4-methoxyphenyl)-N-[5-[[(3R)-1-(1,2,4-triazin-3-yl)pyrrolidin-3-yl]amino]-1,3,4-thiadiazol-2-yl]acetamide], the figures for the IC50 in test [1], in test [2] and in test [3] (setting [4]) were 1370 nM, 134 nM and 1960 nM, respectively.

On to `CO[C@H](C(=O)Nc1nnc(N[C@@H]2CCN(c3nccnn3)C2)s1)c1cccc(OC(F)F)c1` [Example 6(a), (2S)-2-[3-(Difluoromethoxy)phenyl]-2-methoxy-N-[5-[[(3R)-1-(1,2,4-triazin-3-yl)pyrrolidin-3-yl]amino]-1,3,4-thiadiazol-2-yl]acetamide], for which the IC50 in test [1] is 85.1 nM; in test [2], 2.57 nM; in test [3] (setting [4]), 16.6 nM.

On to `COc1cccc([C@H](OC)C(=O)Nc2nnc(N[C@@H]3CCN(c4nccnn4)C3)s2)c1` [Example 4(a), (2S)-2-Methoxy-2-(3-methoxyphenyl)-N-[5-[[(3R)-1-(1,2,4-triazin-3-yl)pyrrolidin-3-yl]amino]-1,3,4-thiadiazol-2-yl]acetamide], for which the IC50 in test [1] was 35.5 nM; in test [2], 1.51 nM; in test [3] (setting [4]), 5.01 nM.

Turning to `CO[C@H](C(=O)Nc1nnc(N[C@@H]2CCN(c3cccnn3)C2)s1)c1cccc(OC(F)(F)F)c1` [Example 9(a), (2S)-2-Methoxy-N-[5-[[(3R)-1-pyridazin-3-ylpyrrolidin-3-yl]amino]-1,3,4-thiadiazol-2-yl]-2-[3-(trifluoromethoxy)phenyl]acetamide], the IC50 was found to be 18.6 nM in test [1], 0.14 nM in test [2] and 0.725 nM in test [3] (setting [4]).

For `COc1cc([C@@H](OC)C(=O)Nc2nnc(N[C@@H]3CCN(c4nccnn4)C3)s2)ccc1F` [32(b), (2R)-2-(4-fluoro-3-methoxy-phenyl)-2-methoxy-N-[5-[[(3R)-1-(1,2,4-triazin-3-yl)pyrrolidin-3-yl]amino]-1,3,4-thiadiazol-2-yl]acetamide], the IC50 in test [1] stood at 70.7 nM; in test [2] it was 4.99 nM; in test [3] (setting [4]) it was 107 nM.

Turning to `CCO[C@H](C(=O)Nc1nnc(N[C@@H]2CCN(c3cccnn3)C2)s1)c1ccc(F)c(OC)c1` [31(a), (2S)-2-ethoxy-2-(4-fluoro-3-methoxy-phenyl)-N-[5-[[(3R)-1-pyridazin-3-ylpyrrolidin-3-yl]amino]-1,3,4-thiadiazol-2-yl]acetamide], the values for the IC50 in test [1], in test [2] and in test [3] (setting [4]) were 50.2 nM, 0.559 nM and 16.5 nM, respectively.

With `COc1cc([C@H](OC)C(=O)Nc2nnc(N[C@@H]3CCN(c4cccnn4)C3)s2)ccc1F` [Example 14(a), (2S)-2-(4-Fluoro-3-methoxy-phenyl)-2-methoxy-N-[5-[[(3R)-1-pyridazin-3-ylpyrrolidin-3-yl]amino]-1,3,4-thiadiazol-2-yl]acetamide], the results for the IC50 in test [1], in test [2] and in test [3] (setting [4]) were 25.5 nM, 0.78 nM and 15.1 nM, respectively.

`COc1cccc([C@H](OC)C(=O)Nc2nnc(N[C@@H]3CCN(c4cccnn4)C3)s2)c1` [Example 5(a), (2S)-2-Methoxy-2-(3-methoxyphenyl)-N-[5-[[(3R)-1-pyridazin-3-ylpyrrolidin-3-yl]amino]-1,3,4-thiadiazol-2-yl]acetamide]: the IC50 is 21.5 nM in test [1], 0.19 nM in test [2] and 3.38 nM in test [3] (setting [4]).
